Assay results reported in US6677326B2 (Arakis, Ltd., priority 1999, dated 2004).

Key:
[1] = Proposed equivalent dose in chronotherapeutic administration; conditions: proposed clinical dose
[2] = BNF 37 March 1999; non-chronotherapeutic; cited from earlier work
hyaluronate (HA) = test: Same study: serum hyaluronate concentration at 08.30; assay type: in vivo, patients; parameters: unit not given beside the values; conditions: mean, serum 08.30
C-reactive protein (CRP) = test: Same study: serum C-reactive protein at 08.30; assay type: in vivo, patients
Description: (§1) Serological: Serum samples were obtained at 08.30, kept on ice for up to 1 hour, separated and stored at −70° C. to measure: C-reactive protein (CRP); IL-6 concentration; IL-6 soluble receptor (IL-6sR) concentration; hyaluronate (HA) concentration.

IL-6 = test: Same study: serum IL-6 concentration at 08.30; assay type: in vivo, patients
Description: as §1

[3] = tested on: patients with rheumatoid arthritis; test: Assessor-blind study of prednisolone 1 mg and 5 mg given at 02.00: clinical outcomes; assay type: in vivo; conditions: for More or Less (arthritis worse: -1 morning, 0 equal, +1 afternoon) / Pain (VAS) / Painful Joints (tender joint count, n=28) / Swollen Joints (swollen joint count, n=28) / Cln Opn (clinician opinion of condition, VAS) / EMS (morning stiffness) / Pt Opn (patient opinion of condition, VAS): mean; for Pain (VAS) / Painful Joints (tender joint count, n=28) / Swollen Joints (swollen joint count, n=28): 08.30; for Cln Opn (clinician opinion of condition, VAS) / EMS (morning stiffness) / Pt Opn (patient opinion of condition, VAS): 12.00
Source text: Patients stayed the night in hospital but were free to be up and about and to leave the hospital during the day. […] Blood samples and clinical assessments were made at 08.30 and further clinical assessments related to symptoms on the day of drug administration at 12.00 and 08.30 the following day (except the final day when this last assessment was made before departure from the hospital). […] Patients went home on Friday afternoon but returned the following Monday to repeat the procedure. […] The patient and assessor were not aware of which dose was given.
Clinical: Outcome was measured at 08.30 each day for: swollen joint count (n=28); tender joint count (n=28); pain (0.100 mm, VAS). Outcome was measured at 12.00 each day for: morning stiffness (minutes); patient opinion of condition (0-100 mm, VAS); clinician opinion of condition (0-100 mm, VAS). Outcome was measured the following day for: whether the arthritis was worse in the morning or afternoon on the previous day (−1 morning, 0 equal, +1 afternoon).
The assessor was not aware of the treatment order allocation (and probably remained blind), but no placebo tablets were used and it was possible for a patient to be un-blind.
Informed consent was obtained and the patient prescription written by a doctor not associated with trial evaluation. Medication was dispensed at 2 a.m. on each treatment day after gently waking the patient. The patient was encouraged to settle back to sleep immediately.
On the morning before medication and on each morning on the day of medication, blood samples were taken at 8.30 a.m. and outcome assessments recorded then, and at noon, as indicated above.
Symptoms, signs and laboratory results were compared within and between patients, but the main assessment was visual inspection of the overall pattern of response. Means and standard deviations were used to define variation rates and for calculating trial size for future studies. An overall assessment of practicality and the potential for more frequent (but smaller volume) blood taking was made by discussion amongst the staff and patients involved.
This patient's assessments have been included normally in the first week, but in the second week they have been used differently.

rheumatoid arthritis = conditions: daily dosage of 7.5 mg; Kirwan 1995; cited from earlier work
[4] = human, in vivo, 1.25 mg
[5] = BNF 37 March 1999; cited from earlier work
[6] = Dose 1 mg at 02.00, Day 1, mean, serum 08.30
[7] = Dose 1 mg at 02.00, Day 2, mean, serum 08.30
[8] = Dose 1 mg at 02.00, Day 3, mean, serum 08.30
[9] = Dose 5 mg at 02.00, Day 11, mean, serum 08.30
[10] = Dose 5 mg at 02.00, Day 12, mean, serum 08.30
[11] = Dose 5 mg at 02.00, Day 13, mean, serum 08.30
[12] = 1 mg prednisolone, three patients

## CC(=O)OCC(=O)[C@@]1(O)CC[C@H]2[C@@H]3CCC4=CC(=O)CC[C@]4(C)[C@H]3C(=O)C[C@@]21C [cortisone acetate]
[1]
  Equivalent dose in chronotherapeutic administration, equal to 1 mg prednisolone: 5 mg
[2]
  Dose equal to 5 mg prednisolone (Normal dosing): 25 mg

## CC(=O)OCC(=O)[C@@]12N=C(C)O[C@@H]1C[C@H]1[C@@H]3CCC4=CC(=O)C=C[C@]4(C)[C@H]3[C@@H](O)C[C@@]12C [deflazacort]
[1]
  Equivalent dose in chronotherapeutic administration, equal to 1 mg prednisolone: 1.2 mg
[2]
  Dose equal to 5 mg prednisolone (Normal dosing): 6 mg

## C[C@]12CCC(=O)C=C1CC[C@@H]1[C@@H]2[C@@H](O)C[C@@]2(C)[C@H]1CC[C@]2(O)C(=O)CO [hydrocortisone]
[1]
  Equivalent dose in chronotherapeutic administration, equal to 1 mg prednisolone: 4 mg
[2]
  Dose equal to 5 mg prednisolone (Normal dosing): 20 mg

## C[C@]12C=CC(=O)C=C1CC[C@@H]1[C@@H]2[C@@H](O)C[C@@]2(C)[C@H]1CC[C@]2(O)C(=O)CO [prednisolone]
Hyaluronate (HA); Dose 1 mg at 02.00, Day 1
  HA: 241.9
Hyaluronate (HA); Dose 1 mg at 02.00, Day 2
  HA: 320.3
Hyaluronate (HA); Dose 1 mg at 02.00, Day 3
  HA: 372.5
Hyaluronate (HA); Dose 5 mg at 02.00, Day 11
  HA: 322.5
Hyaluronate (HA); Dose 5 mg at 02.00, Day 12
  HA: 339.5
Hyaluronate (HA); Dose 5 mg at 02.00, Day 13
  HA: 193.9
C-reactive protein (CRP); 1 mg prednisolone
  CRP: tendency for reduction
C-reactive protein (CRP); 5 mg prednisolone
  CRP: reduced significantly
C-reactive protein (CRP); [6]
  CRP: 35.5
C-reactive protein (CRP); [7]
  CRP: 31.2
C-reactive protein (CRP); [8]
  CRP: 25.8
C-reactive protein (CRP); [9]
  CRP: 36.6
C-reactive protein (CRP); [10]
  CRP: 31.1
C-reactive protein (CRP); [11]
  CRP: 19.1
IL-6; 1 mg prednisolone
  IL-6: tendency for reduction
IL-6; 5 mg prednisolone
  IL-6: reduced significantly
IL-6; [6]
  IL-6: 28.1
IL-6; [7]
  IL-6: 31.1
IL-6; [8]
  IL-6: 22.8
IL-6; [9]
  IL-6: 30.3
IL-6; [10]
  IL-6: 18.5
IL-6; [11]
  IL-6: 13.8
[3]; [12]
  EMS: statistically significantly reduced
  Pain: statistically significantly reduced
  clinician's opinion: statistically significantly reduced
  patient's opinion: statistically significantly reduced
[3]; 5 mg prednisolone at 02.00
  Overall results compared with Arvidson et al.: well within the range of findings published by Arvidson et al.
[3]; Dose 1 mg at 02.00, Day 1
  More or Less (arthritis worse: -1 morning, 0 equal, +1 afternoon): −0.7
  Pain (VAS): 26.0 mm
  Painful Joints (tender joint count, n=28): 20.0
  Swollen Joints (swollen joint count, n=28): 18.7
  Cln Opn (clinician opinion of condition, VAS): 28.7 mm
  EMS (morning stiffness): 55.0 min
  Pt Opn (patient opinion of condition, VAS): 23.7 mm
[3]; Dose 1 mg at 02.00, Day 2
  More or Less (arthritis worse: -1 morning, 0 equal, +1 afternoon): −0.7
  Pain (VAS): 20.3 mm
  Painful Joints (tender joint count, n=28): 20.3
  Swollen Joints (swollen joint count, n=28): 18.7
  Cln Opn (clinician opinion of condition, VAS): 29.3 mm
  EMS (morning stiffness): 51.7 min
  Pt Opn (patient opinion of condition, VAS): 26.7 mm
[3]; Dose 1 mg at 02.00, Day 3
  More or Less (arthritis worse: -1 morning, 0 equal, +1 afternoon): 0.0
  Pain (VAS): 16.7 mm
  Painful Joints (tender joint count, n=28): 20.3
  Swollen Joints (swollen joint count, n=28): 18.3
  Cln Opn (clinician opinion of condition, VAS): 16.3 mm
  EMS (morning stiffness): 40.0 min
  Pt Opn (patient opinion of condition, VAS): 12.7 mm
[3]; Dose 5 mg at 02.00, Day 11
  More or Less (arthritis worse: -1 morning, 0 equal, +1 afternoon): −0.3
  Pain (VAS): 19.7 mm
  Painful Joints (tender joint count, n=28): 19.0
  Swollen Joints (swollen joint count, n=28): 18.0
  Cln Opn (clinician opinion of condition, VAS): 27.7 mm
  EMS (morning stiffness): 30.0 min
  Pt Opn (patient opinion of condition, VAS): 19.3 mm
[3]; Dose 5 mg at 02.00, Day 12
  More or Less (arthritis worse: -1 morning, 0 equal, +1 afternoon): −0.3
  Pain (VAS): 15.7 mm
  Painful Joints (tender joint count, n=28): 19.7
  Swollen Joints (swollen joint count, n=28): 17.3
  Cln Opn (clinician opinion of condition, VAS): 15.7 mm
  EMS (morning stiffness): 20.0 min
  Pt Opn (patient opinion of condition, VAS): 11.7 mm
[3]; Dose 5 mg at 02.00, Day 13
  More or Less (arthritis worse: -1 morning, 0 equal, +1 afternoon): −0.7
  Pain (VAS): 16.0 mm
  Painful Joints (tender joint count, n=28): 19.7
  Swollen Joints (swollen joint count, n=28): 14.0
  Cln Opn (clinician opinion of condition, VAS): 11.7 mm
  EMS (morning stiffness): 33.3 min
  Pt Opn (patient opinion of condition, VAS): 13.3 mm
Rheumatoid arthritis
  Efficacy in rheumatoid arthritis: effective
[4]
  time to Cmax or Tmax: 1 to 3 h

## C[C@]12C=CC(=O)C=C1CC[C@H]1[C@@H]3C[C@@H](O)[C@](O)(C(=O)CO)[C@@]3(C)C[C@H](O)[C@@]12F [triamcinolone]
[1]
  Equivalent dose in chronotherapeutic administration, equal to 1 mg prednisolone: 0.8 mg
[2]
  Dose equal to 5 mg prednisolone (Normal dosing): 4 mg
[5]
  Broadly similar dose in nasal administration: 110 µg

## methyl prednisone
[1]
  Equivalent dose in chronotherapeutic administration, equal to 1 mg prednisolone: 0.8 mg
[2]
  Dose equal to 5 mg prednisolone (Normal dosing): 4 mg
